Assays:
[1] = target: T1, p300 (Homo sapiens, UniProt Q09472); experiment: P300 degradation, HiBit technology in A549 P300 HiBit cells (2 h); assay type: cell-based; details: 2 hrs post treatment; for Dmax: A549, A549 P300 HiBit cells; for DC50: A549 P300 HiBit cells
T1 construct: host or cells: A549 P300 HiBit cells
Summary of the method: (§1)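 A549 HiBiT knock-in cells seeded overnight at 37 °C, 5% CO2 in F-12K with 10% heat-inactivated FBS, then given serial dilutions of compound from 10 mM DMSO stocks. Lytic HiBiT detection reagent added for 10 min at room temperature; luminescence read. Potency and Dmax reported.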

[2] = target: T2, CBP (Homo sapiens, UniProt Q92793); experiment: CBP degradation, HiBit technology in A549 CBP HiBit cells (24 h); assay type: cell-based; details: 24 hrs post treatment
T2 construct: host or cells: A549 CBP HiBit cells
T2 sequence (Q92793 whole entry): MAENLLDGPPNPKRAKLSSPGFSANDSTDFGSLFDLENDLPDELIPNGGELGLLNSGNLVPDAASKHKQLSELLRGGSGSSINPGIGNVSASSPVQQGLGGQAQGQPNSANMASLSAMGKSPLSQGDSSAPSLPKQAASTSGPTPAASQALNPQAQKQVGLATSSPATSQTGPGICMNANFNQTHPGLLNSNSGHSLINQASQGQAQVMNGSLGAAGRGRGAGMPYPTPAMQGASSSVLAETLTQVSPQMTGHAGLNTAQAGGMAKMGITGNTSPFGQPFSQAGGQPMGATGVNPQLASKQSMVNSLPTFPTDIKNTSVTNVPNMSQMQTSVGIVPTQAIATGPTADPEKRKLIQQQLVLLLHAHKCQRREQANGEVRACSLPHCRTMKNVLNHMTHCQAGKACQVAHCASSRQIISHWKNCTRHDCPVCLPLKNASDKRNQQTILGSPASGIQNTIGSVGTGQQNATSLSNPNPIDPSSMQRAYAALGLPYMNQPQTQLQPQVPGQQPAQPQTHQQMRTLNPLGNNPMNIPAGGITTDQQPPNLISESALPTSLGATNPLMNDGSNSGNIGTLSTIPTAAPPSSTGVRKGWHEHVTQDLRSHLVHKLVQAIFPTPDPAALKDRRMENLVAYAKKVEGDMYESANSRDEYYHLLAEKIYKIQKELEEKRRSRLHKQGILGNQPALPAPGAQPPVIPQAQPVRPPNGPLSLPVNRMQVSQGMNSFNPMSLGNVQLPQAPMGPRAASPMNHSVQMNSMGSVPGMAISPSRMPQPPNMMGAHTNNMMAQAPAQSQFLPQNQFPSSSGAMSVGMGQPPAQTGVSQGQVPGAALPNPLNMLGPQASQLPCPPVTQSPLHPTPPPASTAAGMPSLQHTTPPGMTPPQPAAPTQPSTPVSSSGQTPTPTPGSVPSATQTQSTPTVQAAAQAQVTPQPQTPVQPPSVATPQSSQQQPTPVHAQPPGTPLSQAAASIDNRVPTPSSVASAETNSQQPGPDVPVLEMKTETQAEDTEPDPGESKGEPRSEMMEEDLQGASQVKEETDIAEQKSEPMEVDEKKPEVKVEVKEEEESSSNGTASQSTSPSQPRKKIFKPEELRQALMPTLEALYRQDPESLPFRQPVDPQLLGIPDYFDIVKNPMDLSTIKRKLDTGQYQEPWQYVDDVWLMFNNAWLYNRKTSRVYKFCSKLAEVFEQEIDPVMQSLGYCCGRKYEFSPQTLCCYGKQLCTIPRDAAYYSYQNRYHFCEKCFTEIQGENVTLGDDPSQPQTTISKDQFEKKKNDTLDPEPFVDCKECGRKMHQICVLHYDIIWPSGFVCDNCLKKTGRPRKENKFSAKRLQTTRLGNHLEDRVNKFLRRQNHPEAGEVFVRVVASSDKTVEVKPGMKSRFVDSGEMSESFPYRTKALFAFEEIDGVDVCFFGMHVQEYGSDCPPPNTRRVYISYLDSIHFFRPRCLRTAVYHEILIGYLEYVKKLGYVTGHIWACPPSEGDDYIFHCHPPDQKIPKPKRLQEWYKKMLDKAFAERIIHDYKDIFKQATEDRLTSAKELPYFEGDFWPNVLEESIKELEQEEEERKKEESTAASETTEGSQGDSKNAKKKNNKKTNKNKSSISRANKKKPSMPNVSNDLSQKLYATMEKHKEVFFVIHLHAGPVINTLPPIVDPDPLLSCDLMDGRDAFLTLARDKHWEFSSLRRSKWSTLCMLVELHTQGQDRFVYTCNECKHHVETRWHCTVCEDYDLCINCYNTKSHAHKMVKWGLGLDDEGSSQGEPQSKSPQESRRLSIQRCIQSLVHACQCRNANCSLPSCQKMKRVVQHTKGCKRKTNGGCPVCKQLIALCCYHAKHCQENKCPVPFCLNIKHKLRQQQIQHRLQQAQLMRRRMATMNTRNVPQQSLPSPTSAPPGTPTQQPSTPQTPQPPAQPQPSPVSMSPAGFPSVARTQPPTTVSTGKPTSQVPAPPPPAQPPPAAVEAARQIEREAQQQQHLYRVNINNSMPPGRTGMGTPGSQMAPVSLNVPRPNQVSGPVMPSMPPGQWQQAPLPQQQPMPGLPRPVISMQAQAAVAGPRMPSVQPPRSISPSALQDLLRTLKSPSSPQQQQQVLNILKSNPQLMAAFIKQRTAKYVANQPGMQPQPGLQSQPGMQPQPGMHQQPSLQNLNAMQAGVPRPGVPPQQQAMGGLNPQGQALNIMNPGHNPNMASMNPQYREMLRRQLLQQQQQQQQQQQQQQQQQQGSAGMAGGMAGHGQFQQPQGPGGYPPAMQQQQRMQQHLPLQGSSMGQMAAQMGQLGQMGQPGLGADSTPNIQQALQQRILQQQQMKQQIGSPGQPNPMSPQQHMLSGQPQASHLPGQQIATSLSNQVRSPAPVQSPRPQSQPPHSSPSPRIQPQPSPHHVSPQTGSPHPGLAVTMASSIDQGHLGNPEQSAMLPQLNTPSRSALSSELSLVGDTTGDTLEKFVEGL
Summary of the method: as §1

T1 sequence (Q09472 whole entry): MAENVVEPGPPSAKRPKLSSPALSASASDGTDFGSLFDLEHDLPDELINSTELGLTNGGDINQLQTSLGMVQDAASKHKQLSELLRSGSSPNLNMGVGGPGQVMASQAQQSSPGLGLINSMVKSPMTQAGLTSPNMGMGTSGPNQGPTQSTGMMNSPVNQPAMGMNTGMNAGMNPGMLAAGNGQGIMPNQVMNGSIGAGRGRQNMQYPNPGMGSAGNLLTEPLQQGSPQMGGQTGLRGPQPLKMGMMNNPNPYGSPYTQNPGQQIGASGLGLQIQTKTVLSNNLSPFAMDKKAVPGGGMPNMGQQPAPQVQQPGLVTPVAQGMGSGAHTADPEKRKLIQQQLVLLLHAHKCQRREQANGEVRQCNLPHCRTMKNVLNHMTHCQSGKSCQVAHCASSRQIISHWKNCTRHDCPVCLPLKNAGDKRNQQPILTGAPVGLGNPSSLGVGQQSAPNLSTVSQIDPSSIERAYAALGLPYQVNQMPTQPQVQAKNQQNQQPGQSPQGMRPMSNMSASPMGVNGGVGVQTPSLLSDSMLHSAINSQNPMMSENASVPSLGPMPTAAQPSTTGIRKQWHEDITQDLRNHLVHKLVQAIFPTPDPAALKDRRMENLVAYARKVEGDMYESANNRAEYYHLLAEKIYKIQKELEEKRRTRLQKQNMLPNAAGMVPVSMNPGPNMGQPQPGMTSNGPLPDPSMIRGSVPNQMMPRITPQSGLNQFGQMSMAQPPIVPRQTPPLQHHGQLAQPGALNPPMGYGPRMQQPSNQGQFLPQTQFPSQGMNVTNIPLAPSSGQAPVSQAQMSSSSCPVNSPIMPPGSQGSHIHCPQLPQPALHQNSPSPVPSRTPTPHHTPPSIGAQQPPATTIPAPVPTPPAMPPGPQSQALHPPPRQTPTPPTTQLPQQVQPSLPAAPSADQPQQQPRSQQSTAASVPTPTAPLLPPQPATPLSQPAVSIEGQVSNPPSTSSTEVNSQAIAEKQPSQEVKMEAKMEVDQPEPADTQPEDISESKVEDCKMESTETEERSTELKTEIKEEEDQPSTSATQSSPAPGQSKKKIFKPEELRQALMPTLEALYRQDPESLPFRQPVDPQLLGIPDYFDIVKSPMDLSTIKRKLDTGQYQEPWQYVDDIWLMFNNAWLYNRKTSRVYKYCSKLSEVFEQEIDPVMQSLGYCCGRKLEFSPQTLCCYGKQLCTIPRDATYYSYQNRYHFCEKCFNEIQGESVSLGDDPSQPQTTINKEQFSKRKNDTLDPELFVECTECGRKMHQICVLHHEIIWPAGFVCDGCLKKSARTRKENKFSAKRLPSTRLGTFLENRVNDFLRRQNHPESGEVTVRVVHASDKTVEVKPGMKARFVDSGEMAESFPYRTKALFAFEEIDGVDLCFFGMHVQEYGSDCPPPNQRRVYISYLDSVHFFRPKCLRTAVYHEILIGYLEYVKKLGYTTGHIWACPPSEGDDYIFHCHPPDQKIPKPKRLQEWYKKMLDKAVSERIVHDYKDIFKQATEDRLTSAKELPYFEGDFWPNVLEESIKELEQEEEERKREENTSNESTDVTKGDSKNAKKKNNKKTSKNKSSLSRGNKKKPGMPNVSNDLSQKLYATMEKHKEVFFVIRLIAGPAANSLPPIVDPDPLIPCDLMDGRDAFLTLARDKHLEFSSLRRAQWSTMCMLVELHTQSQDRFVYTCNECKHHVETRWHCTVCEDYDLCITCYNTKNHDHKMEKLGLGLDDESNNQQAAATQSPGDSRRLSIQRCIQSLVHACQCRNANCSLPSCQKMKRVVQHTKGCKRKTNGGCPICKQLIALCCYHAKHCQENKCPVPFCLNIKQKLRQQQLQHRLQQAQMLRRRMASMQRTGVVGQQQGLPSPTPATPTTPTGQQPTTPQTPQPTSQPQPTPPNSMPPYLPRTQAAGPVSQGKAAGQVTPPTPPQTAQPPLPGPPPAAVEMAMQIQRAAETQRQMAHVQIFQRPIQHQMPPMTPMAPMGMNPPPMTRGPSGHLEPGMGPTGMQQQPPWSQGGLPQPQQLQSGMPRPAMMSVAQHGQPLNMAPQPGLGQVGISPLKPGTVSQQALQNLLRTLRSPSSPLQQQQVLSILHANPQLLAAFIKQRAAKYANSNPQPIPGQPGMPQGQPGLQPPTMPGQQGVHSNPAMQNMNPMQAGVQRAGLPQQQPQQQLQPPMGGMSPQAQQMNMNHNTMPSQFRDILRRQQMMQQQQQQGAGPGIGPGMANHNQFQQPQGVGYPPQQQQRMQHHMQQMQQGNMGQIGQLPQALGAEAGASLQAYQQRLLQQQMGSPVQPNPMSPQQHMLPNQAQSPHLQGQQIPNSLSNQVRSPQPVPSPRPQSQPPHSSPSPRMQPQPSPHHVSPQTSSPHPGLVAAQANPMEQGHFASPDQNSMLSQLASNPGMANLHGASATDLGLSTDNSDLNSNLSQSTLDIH

| Structure (SMILES) | Dmax [1] [%] | DC50 [1] [nM] | DC50 [2] [nM] | Dmax [2] [%] |
| --- | --- | --- | --- | --- |
| Cc1cc(-c2ncc3c(n2)OCCN3c2ccc3c(c2)n(C)c(=O)n3C)cnc1C(=O)NCC#Cc1cc2c([C@@H]3CCC(=O)NC3=O)cccc2o1 [Example A175, (S)-5-(5-(1,3-dimethyl-2-oxo-2,3-dihydro-1H-benzo[d]imidazol-5-yl)-6,7-dihydro-5H-pyrimido[4,5-b] [1,4]oxazin-2-yl)-N-(3-(4-(2,6-dioxo-piperidin-3-yl)benzofuran-2-yl)prop-2-yn-1-yl)-3-methylpicolinamide] | > 80 | 10 to 99 | > 1000 | < 20 |
| Cc1cc(-c2cc3cccc(-c4cc(C(C)C)c5c(c4)n(C)c(=O)n5C)c3cn2)cnc1C(=O)NCC#Cc1cccc(NC23CC(C2)C(=O)NC3=O)c1 [Example A177, N-(3-(3-((2,4-dioxo-3-azabicyclo[3.1.1]heptan-1-yl)amino)phenyl)prop-2-yn-1-yl)-5-(8-(7-isopropyl-1,3-dimethyl-2-oxo-2,3-dihydro-1H-benzo[d]imidazol-5-yl)isoquinolin-3-yl)-3-methylpicolinamide] | > 80 | 10 to 99 | > 1000 | < 20 |
| Cn1c(=O)n(C)c2cc(N3CCOc4nc(-c5ccc(C(=O)NCC#Cc6ccc7occ(C89CC(C8)C(=O)NC9=O)c7c6)nc5)ncc43)ccc21 [Example A178, 5-(5-(1,3-dimethyl-2-oxo-2,3-dihydro-1H-benzo[d]imidazol-5-yl)-6,7-dihydro-5H-pyrimido[4,5-b][1,4]oxazin-2-yl)-N-(3-(3-(2,4-dioxo-3-azabicyclo [3.1.1]heptan-1-yl)benzofuran-5-yl)prop-2-yn-1-yl)picolinamide] | 20 to 39 | 10 to 99 | > 1000 | < 20 |
| CC(C)c1cc(-c2cccc3cc(-c4ccc(C(=O)NCC#Cc5cc6c(F)ccc(C7CCC(=O)NC7=O)c6o5)nc4)ncc23)cc2c1n(C)c(=O)n2C (centres unmarked) [Example A185, N-(3-(7-(2,6-dioxo-piperidin-3-yl)-4-fluorobenzofuran-2-yl)prop-2-yn-1-yl)-5-(8-(7-isopropyl-1,3-dimethyl-2-oxo-2,3-dihydro-1H-benzo [d]imidazol-5-yl)isoquinolin-3-yl)picolinamide] | 60 to 79 | 10 to 99 | > 1000 | < 20 |
| CC(C)c1cc(-c2cccc3cc(-c4ccc(C(=O)NCC#Cc5oc6c(C7CCC(=O)NC7=O)cccc6c5F)nc4)ncc23)cc2c1n(C)c(=O)n2C (centres unmarked) [Example A191, N-(3-(7-(2,6-dioxo-piperidin-3-yl)-3-fluorobenzofuran-2-yl)prop-2-yn-1-yl)-5-(8-(7-isopropyl-1,3-dimethyl-2-oxo-2,3-dihydro-1H-benzo [d]imidazol-5-yl)isoquinolin-3-yl)picolinamide] | > 80 | 10 to 99 | > 1000 | < 20 |
| Cn1c(=O)n(C)c2c(N3CC4CCC(C3)O4)nc(-c3cccc4cc(-c5ccc(C(=O)NCC#Cc6ccc7occ(C89CC(C8)C(=O)NC9=O)c7c6)nc5)ncc34)cc21 [Example A194, 5-(8-(4-(8-oxa-3-azabicyclo[3.2.1]octan-3-yl)-1,3-dimethyl-2-oxo-2,3-dihydro-1H-imidazo[4,5-c]pyridin-6-yl)isoquinolin-3-yl)-N-(3-(3-(2,4-dioxo-3-azabicyclo[3.1.1]heptan-1-yl)benzofuran-5-yl)prop-2-yn-1-yl)picolinamide] | > 80 | 1 to 9.9 | > 1000 | < 20 |
| Cc1cc(-c2ncc3c(n2)OCCN3c2ccc3c(c2)n(C)c(=O)n3C)cnc1C(=O)NCC#Cc1cc2c(C3CCC(=O)NC3=O)nccc2o1 (centres unmarked) [Example A195, 5-(5-(1,3-dimethyl-2-oxo-2,3-dihydro-1H-benzo[d]imidazol-5-yl)-6,7-dihydro-5H-pyrimido[4,5-b][1,4]oxazin-2-yl)-N-(3-(4-(2,6-dioxopiperidin-3-yl)furo[3,2-c]pyridin-2-yl)prop-2-yn-1-yl)-3-methylpicolinamide] | > 80 | 1 to 9.9 | > 1000 | < 20 |
| CC(C)c1cc(-c2cccc3cc(-c4ccc(C(=O)NCC#Cc5cc6c(C7CCC(=O)NC7=O)cccc6o5)nc4)ncc23)cc2c1n(C)c(=O)n2C (centres unmarked) [Example A197, N-(3-(4-(2,6-dioxo-piperidin-3-yl)benzofuran-2-yl)prop-2-yn-1-yl)-5-(8-(7-isopropyl-1,3-dimethyl-2-oxo-2,3-dihydro-1H-benzo [d]imidazol-5-yl)isoquinolin-3-yl)picolinamide] | > 80 | 1 to 9.9 | > 1000 | < 20 |
| Cc1cc(N2CCOc3nc(-c4ccc(C(=O)NCC#Cc5cc6c(C7CCC(=O)NC7=O)cccc6o5)nc4)ncc32)cc2c1n(C)c(=O)n2C (centres unmarked) [Example A199, N-(3-(4-(2,6-dioxo-piperidin-3-yl)benzofuran-2-yl)prop-2-yn-1-yl)-5-(5-(1,3,7-trimethyl-2-oxo-2,3-dihydro-1H-benzo[d]imidazol-5-yl)-6,7-dihydro-5H-pyrimido[4,5-b] [1,4]oxazin-2-yl)picolinamide] | > 80 | 1 to 9.9 | 100 to 999 | < 20 |
| CC(C)c1cc(-c2cccc3cc(-c4ccc(C(=O)NCC#Cc5cnc6c(c5)c(C5CCC(=O)NC5=O)cn6C)nc4)ncc23)cc2c1n(C)c(=O)n2C (centres unmarked) [Example A202, N-(3-(3-(2,6-dioxo-piperidin-3-yl)-1-methyl-1H-pyrrolo [2,3-b]pyridin-5-yl)prop-2-yn-1-yl)-5-(8-(7-isopropyl-1,3-dimethyl-2-oxo-2,3-dihydro-1H-benzo[d]imidazol-5-yl)isoquinolin-3-yl)picolinamide] | 60 to 79 | 10 to 99 | > 1000 | < 20 |
| Cc1cc(-c2ncc3c(n2)OCCN3c2ccc3c(c2)n(C)c(=O)n3C)cnc1C(=O)NCC#Cc1cc2c(C3CCC(=O)NC3=O)ccc(F)c2o1 (centres unmarked) [Example A203, 5-(5-(1,3-dimethyl-2-oxo-2,3-dihydro-1H-benzo[d]imidazol-5-yl)-6,7-dihydro-5H-pyrimido[4,5-b][1,4]oxazin-2-yl)-N-(3-(4-(2,6-dioxopiperidin-3-yl)-7-fluoro-benzofuran-2-yl)prop-2-yn-1-yl)-3-methylpicolinamide] | 60 to 79 | 10 to 99 | > 1000 | < 20 |

The next lines start with the values.

| Dmax [1] [%] | DC50 [1] [nM] | DC50 [2] [nM] | Dmax [2] [%] | Structure (SMILES) |
| --- | --- | --- | --- | --- |
| > 80 | 1 to 9.9 | > 1000 | < 20 | Cc1cc(-c2ncc3c(n2)OCCN3c2ccc3c(c2)n(C)c(=O)n3C)cnc1C(=O)NCC#Cc1cc2c(C3CCC(=O)NC3=O)cccc2o1 (centres unmarked) [Example A173, 5-(5-(1,3-dimethyl-2-oxo-2,3-dihydro-1H-benzo[d]imidazol-5-yl)-6,7-dihydro-5H-pyrimido[4,5-b][1,4]oxazin-2-yl)-N-(3-(4-(2,6-dioxopiperidin-3-yl)benzofuran-2-yl)prop-2-yn-1-yl)-3-methylpicolinamide] |
| > 80 | 1 to 9.9 | > 1000 | < 20 | Cc1cc(-c2ncc3c(n2)OCCN3c2ccc3c(c2)n(C)c(=O)n3C)cnc1C(=O)NCC#Cc1cc2c([C@H]3CCC(=O)NC3=O)cccc2o1 [Example A174, (R)-5-(5-(1,3-dimethyl-2-oxo-2,3-dihydro-1H-benzo [d]imidazol-5-yl)-6,7-dihydro-5H-pyrimido [4,5-b][1,4]oxazin-2-yl)-N-(3-(4-(2,6-dioxopiperidin-3-yl)benzofuran-2-yl)prop-2-yn-1-yl)-3-methylpicolinamide] |
| > 80 | 1 to 9.9 | > 1000 | < 20 | Cc1cc(-c2cc3cccc(-c4ccc5c(c4)n(C)c(=O)n5C)c3cn2)cnc1C(=O)NCC#Cc1cc2c(C3CCC(=O)NC3=O)cccc2o1 (centres unmarked) [Example A180, 5-(8-(1,3-dimethyl-2-oxo-2,3-dihydro-1H-benzo[d]imidazol-5-yl)isoquinolin-3-yl)-N-(3-(4-(2,6-dioxo-piperidin-3-yl)benzofuran-2-yl)prop-2-yn-1-yl)-3-methylpicolinamide] |
| > 80 | 1 to 9.9 | 100 to 999 | < 20 | Cc1cc(-c2cc3cccc(-c4ccc5c(c4)n(C)c(=O)n5C)c3cn2)cnc1C(=O)NCC#Cc1cc2c([C@H]3CCC(=O)NC3=O)cccc2o1 [Example A181, (R)-5-(8-(1,3-dimethyl-2-oxo-2,3-dihydro-1H-benzo [d]imidazol-5-yl)isoquinolin-3-yl)-N-(3-(4-(2,6-dioxopiperidin-3-yl)benzofuran-2-yl)prop-2-yn-1-yl)-3-methylpicolinamide] |
| > 80 | 1 to 9.9 | > 1000 | < 20 | Cc1cc(-c2cc3cccc(-c4ccc5c(c4)n(C)c(=O)n5C)c3cn2)cnc1C(=O)NCC#Cc1cc2c([C@@H]3CCC(=O)NC3=O)cccc2o1 [Example A182, (S)-5-(8-(1,3-dimethyl-2-oxo-2,3-dihydro-1H-benzo[d]imidazol-5-yl)isoquinolin-3-yl)-N-(3-(4-(2,6-dioxopiperidin-3-yl)benzofuran-2-yl)prop-2-yn-1-yl)-3-methylpicolinamide] |
| > 80 | 1 to 9.9 | > 1000 | < 20 | Cc1cc(-c2cc3cccc(-c4cnc5c(c4)n(C)c(=O)n5C)c3cn2)cnc1C(=O)NCC#Cc1cc2c(C3CCC(=O)NC3=O)cccc2o1 (centres unmarked) [Example A189, 5-(8-(1,3-dimethyl-2-oxo-2,3-dihydro-1H-imidazo[4,5-b]pyridin-6-yl)isoquinolin-3-yl)-N-(3-(4-(2,6-dioxopiperidin-3-yl)benzofuran-2-yl)prop-2-yn-1-yl)-3-methylpicolinamide] |

— patent publication US20250114345A1, “COMPOUNDS AND COMPOSITIONS AS CBP/P300 DEGRADERS AND USES THEREOF” (Oncopia Therapeutics, Inc. d/b/a/ SK Life Science Labs, priority 2023, published 2025)
